Experimental data taken from article PMC12040169 (PLOS Biology, 2025).

Experiment: in vitro
Conditions: human, hela cells, % viability

Row | SMILES | viability at 28.5 h, 10 µM [%]
1 | c1cnc(-c2ccc3c(c2)OCO3)c(OC2CCCCC2)n1 [CBK106706] | 92.4
2 | CC(C)CCOc1nccnc1-c1ccc2c(c1)OCO2 [CBK106711] | 104
3 | COc1ncc(-c2nccnc2OC)c(OC)n1 [CBK106744] | 94.2
4 | COc1ncc(-c2nccnc2OCCn2cnc3c2c(=O)n(C)c(=O)n3C)c(OC)n1 [CBK106746] | 87.3
5 | COc1ncc(-c2nccnc2Oc2cccc(NC(C)=O)c2)c(OC)n1 [CBK106747] | 89.6
6 | COc1ncc(-c2nccnc2OCCOc2ccccc2)c(OC)n1 [CBK106752] | 91.1
7 | COc1ncc(-c2nccnc2OCC2COc3ccccc3O2)c(OC)n1 (stereo not shown) [CBK106754] | 102
8 | CCCCOc1nccnc1-c1cnc(OC)nc1OC [CBK106756] | 98.8
9 | COc1cccc(Oc2nccnc2-c2ccsc2)c1 [CBK106762] | 92.1
10 | c1cnc(-c2ccsc2)c(OC2CCCCC2)n1 [CBK106764] | 97.6
11 | O=C1NCCN1CCOc1nccnc1-c1ccsc1 [CBK106766] | 93.4
12 | c1csc(COc2nccnc2-c2ccsc2)c1 [CBK106770] | 100
13 | c1ccn(CCOc2nccnc2-c2ccsc2)c1 [CBK106772] | 94.4
14 | COc1ccc(CCOc2nccnc2-c2ccsc2)cc1 [CBK106775] | 72
15 | COc1nccnc1-c1cc2ccccc2s1 [CBK106781] | 87.7
16 | c1csc(COc2nccnc2-c2cc3ccccc3s2)c1 [CBK106786] | 99.5
17 | CSc1ccc(-c2nccnc2OC(c2ccccc2)c2ccccc2)cc1 [CBK106797] | 90.2
18 | CSc1ccc(-c2nccnc2OCCC(C)C)cc1 [CBK106802] | 113
19 | COC(=O)COc1nccnc1-c1ccc(SC)cc1 [CBK106806] | 107
20 | COc1ccccc1-c1nccnc1OCCc1c[nH]c2ccccc12 [CBK106807] | 87.7
21 | COc1ccccc1-c1nccnc1OC(c1ccccc1)c1ccccc1 [CBK106813] | 93.8
22 | COc1ccccc1-c1nccnc1OCCc1ccc(NC(C)=O)cc1 [CBK106815] | 115
23 | FC(F)(F)Oc1ccc(-c2nccnc2OCC2COc3ccccc3O2)cc1 (stereo not shown) [CBK106845] | 97.7
24 | COC(=O)COc1nccnc1-c1ccc(OC(F)(F)F)cc1 [CBK106849] | 90.4
25 | COc1nccnc1-c1ccc(C)c(C)c1 [CBK106853] | 88.7

Row | SMILES | viability at 28.5 h, 10 µM [%]
26 | Cc1ccc(-c2nccnc2OCc2ccccc2)cc1C [CBK106861] | 90.8
27 | Cc1ccc(-c2nccnc2OCc2ccco2)cc1C [CBK106863] | 90.2
28 | Cc1ccc(-c2nccnc2OCCOc2ccccc2)cc1C [CBK106865] | 90.8
29 | CCCCOc1nccnc1-c1ccc(C)c(C)c1 [CBK106870] | 95.1
30 | COC(=O)COc1nccnc1-c1ccc(C)c(C)c1 [CBK106871] | 83.3
31 | C(=C\c1nccnc1OCCc1cccs1)/c1ccccc1 [CBK106873] | 101
32 | COc1nccnc1/C=C/c1ccccc1 [CBK106876] | 115
33 | COc1cccc(Oc2nccnc2/C=C/c2ccccc2)c1 [CBK106877] | 107
34 | C(=C\c1nccnc1OC(c1ccccc1)c1ccccc1)/c1ccccc1 [CBK106878] | 99.1
35 | C(=C\c1nccnc1OCCOc1ccccc1)/c1ccccc1 [CBK106885] | 91.6
36 | CC(C)N(CCOc1nccnc1/C=C/c1ccccc1)C(C)C [CBK106889] | 96
37 | CCCC/C=C\c1nccnc1OCCn1cccc1 [CBK106891] | 104
38 | O=C1CCCN1CCOc1nccnc1-c1ccc(F)cc1 [CBK106895] | 98.7
39 | Fc1ccc(-c2nccnc2OCc2ccc3c(c2)OCO3)cc1 [CBK106896] | 93.3
40 | O=C1NCCN1CCOc1nccnc1-c1ccc(F)cc1 [CBK106898] | 97.8
41 | COCc1cccc(-c2nccnc2OCc2ccccn2)c1 [CBK106953] | 96
42 | COCc1cccc(-c2nccnc2OCC(=O)OC)c1 [CBK106976] | 98.7
43 | Cc1ccc(-c2nccnc2OCc2ccccn2)c(C)c1 [CBK106979] | 90.7
44 | Cc1ccc(-c2nccnc2OC2CCCCC2)c(C)c1 [CBK106983] | 94
45 | CC(=O)Nc1ccc(CCOc2nccnc2-c2ccc(C)cc2C)cc1 [CBK106985] | 96.7
46 | Cc1ccc(-c2nccnc2OCCOc2ccccc2)c(C)c1 [CBK106991] | 86.1
47 | O=C1CCCN1CCOc1nccnc1-c1ccccc1Cl [CBK106999] | 100
48 | COc1nccnc1-c1ccccc1Cl [CBK107000] | 100
49 | Clc1ccccc1-c1nccnc1OC(c1ccccc1)c1ccccc1 [CBK107002] | 92.9
50 | Clc1ccccc1-c1nccnc1OCCOc1ccccc1 [CBK107011] | 95.9

Row | SMILES | viability at 28.5 h, 10 µM [%]
51 | COc1ccc(-c2nccnc2OC)c(OC)c1 [CBK107039] | 114
52 | c1ccc(COc2nccnc2-c2cccs2)nc1 [CBK107055] | 107
53 | COc1cccc(Oc2nccnc2-c2cccs2)c1 [CBK107059] | 91.6
54 | Cn1cc(-c2nccnc2OCc2ccccn2)cn1 [CBK107067] | 97.2
55 | COc1nccnc1-c1cnn(C)c1 [CBK107069] | 89.6
56 | COc1cccc(Oc2nccnc2-c2cnn(C)c2)c1 [CBK107071] | 98
57 | Cn1cc(-c2nccnc2OC2CCCCC2)cn1 [CBK107072] | 99.7
58 | Cn1cc(-c2nccnc2OCCn2cccc2)cn1 [CBK107079] | 88.6
59 | Cn1cc(-c2nccnc2OCCOc2ccccc2)cn1 [CBK107080] | 94.9
60 | O=C1c2ccccc2C(=O)N1CCOc1nccnc1-c1cnn(Cc2ccccc2)c1 [CBK107089] | 102
61 | COc1nccnc1-c1cnn(Cc2ccccc2)c1 [CBK107090] | 101
62 | c1ccc(Cn2cc(-c3nccnc3OC3CCCCC3)cn2)cc1 [CBK107092] | 93
63 | c1ccc(Cn2cc(-c3nccnc3OCCn3ccnc3)cn2)cc1 [CBK107102] | 95.5
64 | Clc1ccc(-c2nccnc2OCc2ccccn2)cc1Cl [CBK107108] | 94.7
65 | CCOC(=O)c1ccc(-c2nccnc2Oc2cccc(OC)c2)cc1 [CBK107115] | 81
66 | O=C(NCCCNC1CCc2[nH]c3ccccc3c2C1)c1cccc(Br)c1 (stereo not shown) [CBK107130T] | 86.9
67 | CC1CCCCN1CCCNC(=O)c1ccc(-c2nc(-c3ccc(C#N)cc3)cnc2N)cc1 (stereo not shown) [CBK107139] | 111
68 | CC(C)Nc1cc(SCc2ccc(F)cc2)ncn1 [CBK107158] | 93.9
69 | CC(C)Nc1cc(SCc2cccc(C(F)(F)F)c2)ncn1 [CBK107161] | 88.2
70 | Clc1ccc(CSc2nccnc2N2CCCC2)cc1 [CBK107177] | 95.9
71 | FC(F)(F)c1cccc(CSc2cc(N3CCCC3)ncn2)c1 [CBK107184] | 91.1
72 | FC(F)(F)c1nc2ccccc2nc1SC1CCCCC1 [CBK107205] | 97.2
73 | CNC(=O)CSc1nc2ccccc2nc1C(F)(F)F [CBK107206] | 95.9
74 | C[C@@H]1CN[C@@H](C)CN1Cc1cc(NS(=O)(=O)c2ccccc2Cl)cc2ccoc12 [CBK107211T] | 98.6
75 | Fc1ccc(CCN2CCCCC2c2cc3ccccc3[nH]2)cc1 (stereo not shown) [CBK107227T] | 89.6

Row | SMILES | viability at 28.5 h, 10 µM [%]
76 | O=C(c1[nH]nc(O)c1Cc1c(Cl)cccc1Cl)N1CCOCC1 [CBK107228] | 101
77 | CCCc1n[nH]c(-c2cc(C(F)(F)F)ccc2F)c1C(=O)OCC [CBK107231] | 94.6
78 | O=C(Nc1cccnc1)c1cc2cc(Cl)ccc2[nH]1 [CBK107261] | 88.7
79 | O=C(NCc1ccccn1)c1cc2cc(Cl)ccc2[nH]1 [CBK107265] | 88.2
80 | CN1CCN(C(=O)c2cc(C(C)(C)C)nn2Cc2ccc(Cl)cc2Cl)CC1 [CBK107285] | 109
81 | CN(C)CCCNC(=O)c1cc(C(C)(C)C)nn1Cc1ccc(Cl)cc1Cl [CBK107286] | 102
82 | CC(C)(C)c1cc(C(=O)NCc2ccccn2)n(Cc2ccc(Cl)cc2Cl)n1 [CBK107288] | 101
83 | CC(C)(N)CNC(=O)c1cc(C(C)(C)C)nn1Cc1ccc(Cl)cc1Cl [CBK107296] | 95.6
84 | CN(C)CCNC(=O)Cc1csc(-c2ccc(Cl)cc2)n1 [CBK107299] | 96.2
85 | CN1CCN(C(=O)Cc2csc(-c3ccc(Cl)cc3)n2)CC1 [CBK107301] | 104
86 | O=C(Cc1csc(-c2ccc(Cl)cc2)n1)NCCN1CCCC1 [CBK107306] | 90
87 | O=C(Cc1csc(-c2ccc(Cl)cc2)n1)N1CCN(c2ccccn2)CC1 [CBK107310] | 97
88 | CN(C)CCN(C)C(=O)c1cc2cc(OC(F)(F)F)ccc2[nH]1 [CBK107316] | 91.5
89 | COc1ccc(Nc2cc(Cl)ccc2C(=O)N2CCN(c3ncccn3)CC2)cn1 [CBK107334] | 89.9
90 | O=C(Nc1cccnc1)c1cnc2cc(Cl)ccc2c1O [CBK107353] | 82.6
91 | CN(C)CC(C)(C)CNC(=O)c1cnc2cc(Cl)ccc2c1O [CBK107357] | 97
92 | CC(C)(N)CNC(=O)c1cnc2cc(Cl)ccc2c1O [CBK107360] | 101
93 | NCCNC(=O)c1cc2cc(OC(F)(F)F)ccc2[nH]1 [CBK107368] | 118
94 | O=C(Nc1ccncc1)c1cc2cc(OC(F)(F)F)ccc2[nH]1 [CBK107369] | 89.3
95 | CCCc1c(C(=O)N2CCN(C)CC2)cnn1-c1cc(Cl)cc(Cl)c1 [CBK107375] | 103
96 | CCCc1c(C(=O)NCC(C)(C)CN(C)C)cnn1-c1cc(Cl)cc(Cl)c1 [CBK107381] | 94.3
97 | Cc1c(C(=O)Nc2ccncc2)nnn1-c1cccc(C(F)(F)F)c1 [CBK107390] | 102
